The compounds below were run on Entamoeba histolytica (assay: Antiamoebic activity against trophozoite stage of Entamoeba histolytica HM-1:IMSS assessed as parasite growth inhibition after 72 hr by microdilution assay).
Format: functional, organism-based
Work on `S=C(NCc1ccccc1Cl)N1CCC(c2cccc(Cl)c2)=N1` yielded an IC50 of 2.2 µM. In the case of `S=C(NC1CCCCCCC1)N1CCC(c2ccccc2)=N1`, the IC50 is reported as 2.5 µM. `CCCNC(=S)N1CCC(c2cccc(Br)c2)=N1` was tested, and the IC50 was 8.5 µM. `S=C(NC1CCCCCCC1)N1CCC(c2cccc(Br)c2)=N1` gave an IC50 of 2 µM. Compound `CCN(CC)C(=S)N1CCC(c2cccc(Br)c2)=N1` has an IC50 of 1.2 µM. `S=C(NC1CCCC1)N1CCC(c2cccc(Cl)c2)=N1` gave an IC50 of 3.7 µM. With `S=C(N1CCC(Cc2ccccc2)CC1)N1CCC(c2ccccc2)=N1` the IC50 was 2.3 µM. Compound `S=C(NCc1ccccc1Cl)N1CCC(c2cccc(Br)c2)=N1` has an IC50 of 2.6 µM. Work on `S=C(N1CCN(c2ccccc2)CC1)N1CCC(c2cccc(Cl)c2)=N1` yielded an IC50 of 1.2 µM. `S=C(NCc1ccccc1Cl)N1CCC(c2ccccc2)=N1` was tested, and the IC50 was 7.6 µM. With `S=C(NC1CCCCC1)N1CCC(c2cccc(Cl)c2)=N1` the IC50 was 2.4 µM. For `CC(C)NC(=S)N1CCC(c2ccccc2)=N1`, the IC50 was 23 µM. In the case of `CC1CCN(C(=S)N2CCC(c3cccc(Br)c3)=N2)CC1`, the IC50 is reported as 3.6 µM. Compound `CC(C)NC(=S)N1CCC(c2cccc(Cl)c2)=N1` has an IC50 of 12.2 µM. Work on `S=C(NC1CCCCC1)N1CCC(c2cccc(Br)c2)=N1` yielded an IC50 of 3.1 µM. For `CCCN(CCC)C(=S)N1CCC(c2ccccc2)=N1`, the IC50 was 2 µM. `S=C(NC1CCCC1)N1CCC(c2cccc(Br)c2)=N1` showed an IC50 of 4.2 µM. `CCCCNC(=S)N1CCC(c2cccc(Br)c2)=N1` was tested, and the IC50 was 14.2 µM. With `CCN(CC)C(=S)N1CCC(c2ccccc2)=N1` the IC50 was 4.2 µM. In the case of `CCCN(CCC)C(=S)N1CCC(c2cccc(Cl)c2)=N1`, the IC50 is reported as 0.6 µM. `CC1CCN(C(=S)N2CCC(c3cccc(Cl)c3)=N2)CC1` was tested, and the IC50 was 2.8 µM. With `CCCNC(=S)N1CCC(c2ccccc2)=N1` the IC50 was 14 µM. `CC(C)CNC(=S)N1CCC(c2ccccc2)=N1` showed an IC50 of 11.2 µM. `CCCCNC(=S)N1CCC(c2ccccc2)=N1` was tested, and the IC50 was 23.3 µM. For `S=C(NC1CCCCCCC1)N1CCC(c2cccc(Cl)c2)=N1`, the IC50 was 1.5 µM. `CC(C)/N=C(\S)N1CCC(c2cccc(Br)c2)=N1` showed an IC50 of 15.2 µM. Work on `CC(C)CNC(=S)N1CCC(c2cccc(Cl)c2)=N1` yielded an IC50 of 5 µM. With `S=C(NC1CCCCC1)N1CCC(c2ccccc2)=N1` the IC50 was 5.2 µM. In the case of `CCCCN(C)C(=S)N1CCC(c2cccc(Cl)c2)=N1`, the IC50 is reported as 0.7 µM. In the case of `CCCN(CCC)C(=S)N1CCC(c2cccc(Br)c2)=N1`, the IC50 is reported as 0.8 µM. Compound `CCN(CC)C(=S)N1CCC(c2cccc(Cl)c2)=N1` has an IC50 of 1 µM. `CCCCNC(=S)N1CCC(c2cccc(Cl)c2)=N1` showed an IC50 of 12.3 µM. In the case of `S=C(N1CCC(Cc2ccccc2)CC1)N1CCC(c2cccc(Br)c2)=N1`, the IC50 is reported as 1.4 µM. In the case of `CC(C)CNC(=S)N1CCC(c2cccc(Br)c2)=N1`, the IC50 is reported as 6.1 µM. With `CCCCN(C)C(=S)N1CCC(c2ccccc2)=N1` the IC50 was 5.7 µM. `CCCCN(C)C(=S)N1CCC(c2cccc(Br)c2)=N1` gave an IC50 of 2.4 µM. For `S=C(N1CCN(c2ccccc2)CC1)N1CCC(c2ccccc2)=N1`, the IC50 was 3.1 µM. `S=C(NC1CCCC1)N1CCC(c2ccccc2)=N1` was tested, and the IC50 was 6.5 µM. In the case of `S=C(N1CCN(c2ccccc2)CC1)N1CCC(c2cccc(Br)c2)=N1`, the IC50 is reported as 1.6 µM. `CC1CCN(C(=S)N2CCC(c3ccccc3)=N2)CC1` was tested, and the IC50 was 4.8 µM.
